Assay results published in the supplement of paper PMC10307832.

Tests used:
Test in all cases: relative viability (nuclei count vs DMSO), 5 days (fraction); higher = more cells survive
BI-D1870 + Olaparib = compound: CC(C)CCN1c2nc(Nc3cc(F)c(O)c(F)c3)ncc2N(C)C(=O)C1C [BI-D1870] + O=C(c1cc(Cc2n[nH]c(=O)c3ccccc23)ccc1F)N1CCN(C(=O)C2CC2)CC1 [Olaparib] (partner 8 µM)
How it was run: (§1)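 Relative viability equals treated-well nuclei counts divided by vehicle-well nuclei counts. Counts came from 4× images of lung cancer cell lines grown in 1536-well plates for 5 days after pin-tool dosing on the day after seeding. Dosing used one drug alone or a fixed anchor-drug dose plus five library-drug doses (not always all listed) in √10 steps, and values are medians of duplicate plates.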

BI-D1870 + Lapatinib = compound: CC(C)CCN1c2nc(Nc3cc(F)c(O)c(F)c3)ncc2N(C)C(=O)C1C [BI-D1870] + CS(=O)(=O)CCNCc1ccc(-c2ccc3ncnc(Nc4ccc(OCc5cccc(F)c5)c(Cl)c4)c3c2)o1 [Lapatinib] (partner 2 µM)
How it was run: as §1

BI-D1870 + Tozasertib = compound: CC(C)CCN1c2nc(Nc3cc(F)c(O)c(F)c3)ncc2N(C)C(=O)C1C [BI-D1870] + Cc1cc(Nc2cc(N3CCN(C)CC3)nc(Sc3ccc(NC(=O)C4CC4)cc3)n2)n[nH]1 [Tozasertib] (partner 0.1 µM)
How it was run: as §1

BI-D1870 + Bortezomib = compound: CC(C)CCN1c2nc(Nc3cc(F)c(O)c(F)c3)ncc2N(C)C(=O)C1C [BI-D1870] + CC(C)C[C@H](NC(=O)[C@H](Cc1ccccc1)NC(=O)c1cnccn1)B(O)O [Bortezomib] (partner 0.002 µM)
How it was run: as §1

Cell Line | relative viability (BI-D1870 + Olaparib; first compound 0.04 µM) | relative viability (BI-D1870 + Olaparib; first compound 0.1265 µM) | relative viability (BI-D1870 + Olaparib; first compound 0.4 µM) | relative viability (BI-D1870 + Olaparib; first compound 1.265 µM) | relative viability (BI-D1870 + Olaparib; first compound 4 µM) | relative viability (BI-D1870 + Lapatinib; first compound 0.04 µM) | relative viability (BI-D1870 + Lapatinib; first compound 0.1265 µM) | relative viability (BI-D1870 + Lapatinib; first compound 0.4 µM) | relative viability (BI-D1870 + Lapatinib; first compound 1.265 µM) | relative viability (BI-D1870 + Lapatinib; first compound 4 µM) | relative viability (BI-D1870 + Tozasertib; first compound 0.04 µM) | relative viability (BI-D1870 + Tozasertib; first compound 0.1265 µM) | relative viability (BI-D1870 + Tozasertib; first compound 0.4 µM) | relative viability (BI-D1870 + Tozasertib; first compound 1.265 µM) | relative viability (BI-D1870 + Tozasertib; first compound 4 µM) | relative viability (BI-D1870 + Bortezomib; first compound 0.04 µM) | relative viability (BI-D1870 + Bortezomib; first compound 0.1265 µM) | relative viability (BI-D1870 + Bortezomib; first compound 0.4 µM) | relative viability (BI-D1870 + Bortezomib; first compound 1.265 µM) | relative viability (BI-D1870 + Bortezomib; first compound 4 µM)
LXF-289 | 1.1 | 1.04 | 1.06 | 1.08 | 0.612 | 0.927 | 0.831 | 0.881 | 0.87 | 0.788 | 0.173 | 0.211 | 0.191 | 0.183 | 0.195 | 1.05 | 1.02 | 1 | 0.977 | 0.879
NCI-H2009 | 0.831 | 0.826 | 0.602 | 0.619 | 0.583 | 1.01 | 0.955 | 0.885 | 0.741 | 0.478 | 0.826 | 0.723 | 0.639 | 0.516 | 0.321 | 1.03 | 0.934 | 1.01 | 0.866 | 0.246
NCI-H2405 | 0.874 | 0.826 | 0.89 | 0.802 | 0.814 | 1.16 | 1.03 | 1.05 | 1.32 | 1.1 | 0.837 | 0.697 | 0.728 | 0.846 | 0.421 | 1.07 | 0.89 | 0.959 | 1.02 | 1.02
NCI-H1755 | 0.855 | 0.842 | 0.893 | 0.896 | 0.82 | 1.11 | 0.982 | 1.08 | 1.16 | 0.992 | 0.59 | 0.551 | 0.518 | 0.513 | 0.531 | 1.07 | 0.921 | 0.949 | 1.09 | 0.937
HCC-78 | 0.662 | 0.932 | 0.682 | 0.971 | 0.68 | 0.827 | 0.597 | 0.715 | 1.13 | 0.856 | 0.455 | 0.355 | 0.392 | 0.39 | 0.293 | 0.545 | 0.402 | 0.492 | 0.56 | 0.42
LOU-NH91 | 1.06 | 0.892 | 0.903 | 0.911 | 0.669 | 0.837 | 0.717 | 0.782 | 0.837 | 0.677 | 0.688 | 0.536 | 0.695 | 0.586 | 0.405 | 0.485 | 0.465 | 0.451 | 0.484 | 0.466
NCI-H3122 | 0.576 | 0.562 | 0.566 | 0.631 | 0.588 | 1.02 | 0.985 | 0.983 | 1.01 | 0.967 | 0.456 | 0.471 | 0.401 | 0.415 | 0.204 | 1 | 0.932 | 1.05 | 1.03 | 0.996
HCC-827 | 0.71 | 0.649 | 0.594 | 0.634 | 0.626 | 0.224 | 0.179 | 0.194 | 0.172 | 0.231 | 0.421 | 0.401 | 0.377 | 0.396 | 0.369 | 1.14 | 1.1 | 0.985 | 1.03 | 1.12
